Experimental data as given in the supplement of paper PMC11061612.

Legend:
IST-MES1 (Mesothelioma) [1] = assay: Bliss excess, mean over the matrix (fraction); higher = more synergy
Method in brief: (§1)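 After 24 hours at 37°C and 5% CO2 in 1536-well plates, cells in DMEM/F12 or RPMI plus 10% FBS received two-drug dose matrices for 72 hours. Viability came from CellTiter-Glo 2.0 luminescence and was scaled as inhibition, anchored at 0 by vehicle wells and at 1 by blank wells. Combination Emax is taken as the second-highest inhibition in the matrix, and Bliss excess as the observed combination effect less EA + EB − EA·EB, with EA and EB the single-agent effects.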

[2] = system: L-1236 (Hodgkin's Lymphoma); assay: as above
Method in brief: as §1

[3] = system: NCI-H2342 (Lung Adenocarcinoma); assay: as above
Method in brief: as §1

SK-MEL-2 (Melanoma) = assay: as above
Method in brief: as §1

[4] = system: CAL-62 (Thyroid Gland Carcinoma); assay: combination Emax (second highest fraction inhibited in the dose matrix, 72 h); higher = more inhibition; extreme values may be limits of the assay
Method in brief: as §1

[5] = system: HSC-39 (Gastric Carcinoma); assay: as above
Method in brief: as §1

IST-MES1 (Mesothelioma) [6] = assay: as above
Method in brief: as §1

[7] = system: L-1236 (Hodgkin's Lymphoma); assay: as above
Method in brief: as §1

[8] = system: LK-2 (Squamous Cell Lung Carcinoma); assay: as above
Method in brief: as §1

[9] = system: MKN45 (Gastric Carcinoma); assay: as above
Method in brief: as §1

NB12 (Neuroblastoma) = assay: as above
Method in brief: as §1

[10] = system: PANC-03-27 (Pancreatic Carcinoma); assay: as above
Method in brief: as §1

[11] = system: PC-3_[JPC-3] (Lung Adenocarcinoma); assay: as above
Method in brief: as §1

[12] = system: PSN1 (Pancreatic Carcinoma); assay: as above
Method in brief: as §1

[13] = system: RKN (Other Solid Carcinomas); assay: as above
Method in brief: as §1

SF539 (Glioblastoma) = assay: as above
Method in brief: as §1

[14] = system: SHP-77 (Small Cell Lung Carcinoma); assay: as above
Method in brief: as §1

[15] = system: SK-PN-DW (Other Solid Carcinomas); assay: as above
Method in brief: as §1

[16] = system: TE-8 (Esophageal Squamous Cell Carcinoma); assay: as above
Method in brief: as §1

[17] = system: VAL (B-Cell Non-Hodgkin's Lymphoma); assay: as above
Method in brief: as §1
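For Bliss excess, mean over the matrix in this document: after 72 h of two-drug dosing.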

SMILES: CC1(C)CCC(CN2CCN(c3ccc(C(=O)NS(=O)(=O)c4ccc(NCC5CCOCC5)c([N+](=O)[O-])c4)c(Oc4cnc5[nH]ccc5c4)c3)CC2)=C(c2ccc(Cl)cc2)C1 [Venetoclax] + CS(=O)(=O)CCNCc1ccc(-c2ccc3ncnc(Nc4ccc(OCc5cccc(F)c5)c(Cl)c4)c3c2)o1 [Lapatinib] (first compound max 1 µM, 7x7, partner max 10 µM)
- Bliss excess (IST-MES1 (Mesothelioma) [1]): -0.0357
- Bliss excess [2]: -0.0583
- Bliss excess [3]: -0.0374
- Bliss excess (SK-MEL-2 (Melanoma)): -0.0207
- combination Emax [4]: 0.114
- combination Emax [5]: 0.915
- combination Emax (IST-MES1 (Mesothelioma) [6]): 0.313
- combination Emax [7]: 0.655
- combination Emax [8]: 0.31
- combination Emax [9]: 0.242
- combination Emax (NB12 (Neuroblastoma)): 0.915
- combination Emax [10]: 0.5
- combination Emax [11]: 0.568
- combination Emax [12]: 0.177
- combination Emax [13]: 0.171
- combination Emax (SF539 (Glioblastoma)): 0.309
- combination Emax [14]: 0.344
- combination Emax [15]: 0.455
- combination Emax [16]: 0.263
- combination Emax [17]: 1
